Reference: US12351586B2 (priority 2020, dated 2025)

Legend:
[1] = system: HIV-1 mutant strains (K101E, V108I, F227C, M230I in RT gene); assay: Activity against mutant strains selected by passaging HIV-1 IIIB 30 times in the presence of DK6-1; assay type: cell-based
WT HIV-1 strain (IIIB) = assay: Anti-HIV activity in MT-4 cells, MTT method, WT HIV-1 strain (IIIB); assay type: cell-based
Text: Etravirine (ETR) was selected as control drug.
Pannecouque et al. Nat. Protoc. […] Methods 20(1988) 309-321.

[2] = system: HIV-1 E138K mutant strain; assay: microbe, parasite or virus in culture; conditions: Human immunodeficiency virus 1, MT4, read-out: EC50 (anti-HIV activity)
[3] = system: HIV-1 K103N mutant strain; assay: Anti-HIV activity in MT-4 cells, MTT method, K103N mutant strain; assay type: cell-based; conditions: Human immunodeficiency virus 1, MT4, read-out: EC50 (anti-HIV activity)
Text: Pannecouque et al. Nat. Protoc.

[4] = system: HIV-1 L100I mutant strain; assay: microbe, parasite or virus in culture; conditions: Human immunodeficiency virus 1, MT4, read-out: EC50 (anti-HIV activity)

Row | SMILES | EC50 ([1]; mutant strains with K101E, V108I, F227C, M230I) | fold potent versus own activity against HIV-1 IIIB ([1]; selected mutant strains vs HIV-1 IIIB) | EC50 (WT HIV-1 strain (IIIB); HIV-1 IIIB wild-type) | EC50 [2] | EC50 (WT HIV-1 strain (IIIB); Human immunodeficiency virus 1, MT4, HIV-1 IIIB wild-type) | EC50 [3] | EC50 [4]
1 | Cc1cn([C@H]2C[C@H](N=[N+]=[N-])[C@@H](CO)O2)c(=O)[nH]c1=O [AZT] | 1 nM | about 10 fold | 12.7 nM |  |  |  | 
2 | Cc1cc(/C=C/C#N)cc(C)c1Oc1nc(NC2CCN(Cc3ccc(S(N)(=O)=O)cc3)CC2)nc2sccc12 [DK6-1] |  |  |  | < 8 nM | 3.24 nM | 2.34 nM | < 8 nM
